{
  "source": "patent US10208033B2",
  "about": "“β-carboline, dihydro-β-carboline and tetrahydro-β-carboline alkaloid derivatives and preparation methods same and use in aspects of preventing and treating plant viruses, fungicides and insecticides” (NANKAI UNIVERSITY, priority 2013, dated 2019)",
  "key": {"cucumber fusarium wilt": {"test_system": "cucumber fusarium wilt", "test": "Fungicidal (bactericidal) activity in vitro, PDA colony diameter", "type": "cell-based"}, "Cercospora arachidicola": {"test_system": "Cercospora arachidicola", "test": "Fungicidal (bactericidal) activity in vitro, PDA colony diameter", "type": "cell-based"}, "Macrophoma kawatsukai": {"test_system": "Macrophoma kawatsukai", "test": "Fungicidal (bactericidal) activity in vitro, PDA colony diameter", "type": "cell-based"}, "Alternaria solani": {"test_system": "Alternaria solani", "test": "Fungicidal (bactericidal) activity in vitro, PDA colony diameter", "type": "cell-based"}, "Fusarium graminearumt": {"test_system": "Fusarium graminearumt", "test": "microbe, parasite or virus in culture", "type": "cell-based", "conditions": "50 mg/kg"}, "potato late blight": {"test_system": "potato late blight", "test": "microbe, parasite or virus in culture", "type": "cell-based"}, "Sclerotinia scleotiorum": {"test_system": "Sclerotinia scleotiorum", "test": "Fungicidal (bactericidal) activity in vitro, PDA colony diameter", "type": "cell-based"}, "Botrytis cinerea": {"test_system": "Botrytis cinerea", "test": "Fungicidal (bactericidal) activity in vitro, PDA colony diameter", "type": "cell-based"}, "Rhizoctonia solani": {"test_system": "Rhizoctonia solani", "test": "Fungicidal (bactericidal) activity in vitro, PDA colony diameter", "type": "cell-based"}, "Phytophthora capsici": {"test_system": "Phytophthora capsici", "test": "Fungicidal (bactericidal) activity in vitro, PDA colony diameter", "type": "cell-based"}, "Fusarium fujikuroi": {"test_system": "Fusarium fujikuroi", "test": "Fungicidal (bactericidal) activity in vitro, PDA colony diameter", "type": "cell-based"}, "Rhizoctonia cereali": {"test_system": "Rhizoctonia cereali", "test": "Fungicidal (bactericidal) activity in vitro, PDA colony diameter", "type": "cell-based"}, "Bipolaria maydis": {"test_system": "Bipolaria maydis", "test": "organism not typed", "type": "cell-based", "conditions": "50 mg/kg"}, "[1]": {"test_system": "Colletotrichum orbiculare", "test": "Fungicidal (bactericidal) activity in vitro, PDA colony diameter", "type": "cell-based"}, "armyworms": {"test_system": "armyworms", "type": "in vivo", "conditions": "concentration 600 mg/kg"}, "cotton bollworms": {"test_system": "cotton bollworms", "test": "whole plant or invertebrate", "conditions": "in vivo", "protocol": "Experimental method of cotton bollworms: feed and drug mixing method: measure 3 mL of prepared solution and add it to about 27 g of newly prepared feed, thereby obtaining needed concentration through dilution by 10 times."}, "mosquito larvae": {"test_system": "mosquito larvae", "test": "whole plant or invertebrate", "conditions": "in vivo", "protocol": "Experimental method of mosquito larvae: culex pipiens pallens, a normal colony raised indoors. Weigh about 5 mg of the compound for test, put it in a penicillin vial, add 5 mL of acetone (or an appropriate solvent), and shake and dissolve it to obtain a 1000 ppm mother solution. Pipette 0.5 mL of the mother solution, add it to a 100 mL beaker filled with 89.9 mL of water, select 10 mosquito larvae at the beginning of the fourth instar, and pour them to a beaker together with 10 mL of feeding solution. The concentration of the drug solution is 5 ppm. […] Use an aqueous solution containing 0.5 mL of test solvent as a blank."}, "corn borers": {"test_system": "corn borers", "conditions": "in vivo"}, "[2]": {"test_system": "tobacco mosaic virus (TMV)", "test": "Anti-TMV in vitro effect (half-leaf soaking)", "type": "cell-based, tobacco mosaic virus (host Nicotiana tabacum L.cv.Xanthi NN)", "conditions": "for inhibition at 100 µg/mL / inhibition at 500 µg/mL: Tobacco mosaic virus, read-out: Relative inhibition rate (%) In vitro activity"}, "[3]": {"test_system": "tobacco mosaic virus (TMV)", "test": "Anti-TMV in vivo inactivation", "parameters": "species or system tobacco mosaic virus (host Nicotiana tabacum L.cv.Xanthi NN)", "conditions": "for inhibition at 100 µg/mL / inhibition at 500 µg/mL: Tobacco mosaic virus, read-out: Relative inhibition rate (%) In vivo inactivation"}, "[4]": {"test_system": "tobacco mosaic virus (TMV)", "test": "Anti-TMV in vivo therapeutic effect", "parameters": "species or system tobacco mosaic virus (host Nicotiana tabacum L.cv.Xanthi NN)", "conditions": "for inhibition at 100 µg/mL / inhibition at 500 µg/mL: Tobacco mosaic virus, read-out: Relative inhibition rate (%) In vivo therapy"}, "[5]": {"test_system": "tobacco mosaic virus (TMV)", "test": "Anti-TMV in vivo protective effect", "parameters": "species or system tobacco mosaic virus (host Nicotiana tabacum L.cv.Xanthi NN)", "conditions": "for inhibition at 100 µg/mL / inhibition at 500 µg/mL: Tobacco mosaic virus, read-out: Relative inhibition rate (%) In vivo protection"}},
  "note": "Where a name gives a salt, the structure may show the parent alone.",
  "data": [
    {"smiles": "CCOC(=O)[C@@H]1Cc2c([nH]c3ccccc23)[C@H](c2cccnc2)N1", "note": "[Ib-11, (1S, 3S)-1-(pyridine-3)-2,3,4,9-tetrahydropyridino [3,4-b] indol-3-ethyl formate]", "values": [
      {"measurement": "Bactericidal activity (%) Cucumber fusarium wilt", "setting": "cucumber fusarium wilt", "result": 23.8, "unit": "%"},
      {"measurement": "Bactericidal activity (%) Cercospora arachidicola", "setting": "Cercospora arachidicola", "result": 42.9, "unit": "%"},
      {"measurement": "Bactericidal activity (%) Macrophoma kawatsukai", "setting": "Macrophoma kawatsukai", "result": 35.3, "unit": "%"},
      {"measurement": "Bactericidal activity (%) Alternaria solani", "setting": "Alternaria solani", "result": 55.6, "unit": "%"},
      {"measurement": "Bactericidal activity (%) Fusarium graminearumt", "setting": "Fusarium graminearumt", "result": 28.6, "unit": "%"},
      {"measurement": "Bactericidal activity (%) potato late blight", "setting": "potato late blight", "result": 35.0, "unit": "%"},
      {"measurement": "Bactericidal activity (%) Sclerotinia scleotiorum", "setting": "Sclerotinia scleotiorum", "result": 76.0, "unit": "%"},
      {"measurement": "Bactericidal activity (%) Botrytis cinerea", "setting": "Botrytis cinerea", "result": 40.9, "unit": "%"},
      {"measurement": "Bactericidal activity (%) Rhizoctonia solani", "setting": "Rhizoctonia solani", "result": 17.9, "unit": "%"},
      {"measurement": "Bactericidal activity (%) Phytophthora capsici", "setting": "Phytophthora capsici", "result": 36.4, "unit": "%"},
      {"measurement": "Bactericidal activity (%) Fusarium fujikuroi", "setting": "Fusarium fujikuroi", "result": 28.6, "unit": "%"},
      {"measurement": "Bactericidal activity (%) Rhizoctonia cereali", "setting": "Rhizoctonia cereali", "result": 65.6, "unit": "%"},
      {"measurement": "Bactericidal activity (%) Bipolaria maydis", "setting": "Bipolaria maydis", "result": 15.8, "unit": "%"},
      {"measurement": "Bactericidal activity (%) Colletotrichum orbiculare", "setting": "[1]", "result": 42.9, "unit": "%"},
      {"measurement": "Armyworm Mortality (%)", "setting": "armyworms", "result": 5, "unit": "%"},
      {"measurement": "Cotton bollworm Mortality (%)", "setting": "cotton bollworms", "result": 20, "unit": "%"},
      {"measurement": "Mosquito larvae Mortality (%)", "setting": "mosquito larvae", "result": 15, "unit": "%"},
      {"measurement": "Corn borer Mortality (%)", "setting": "corn borers", "result": 5, "unit": "%"}
    ]},
    {"smiles": "COc1cc2c3c(c4cc(OC)c(OC)cc4c2cc1OC)CN1CCC[C@H]1C3.O=C(O)C[C@@H](O)C(=O)O", "note": "[NK-007, reference compound]", "values": [
      {"measurement": "Relative inhibition rate (%) In vitro activity", "setting": "[2]; treatment dose 100 μg/mL", "result": 38.7, "unit": "%"},
      {"measurement": "Relative inhibition rate (%) In vitro activity", "setting": "[2]; treatment dose 500 μg/mL", "result": 65.4, "unit": "%"},
      {"measurement": "Relative inhibition rate (%) In vivo inactivation", "setting": "[3]; treatment dose 100 μg/mL", "result": 33.9, "unit": "%"},
      {"measurement": "Relative inhibition rate (%) In vivo inactivation", "setting": "[3]; treatment dose 500 μg/mL", "result": 65.2, "unit": "%"},
      {"measurement": "Relative inhibition rate (%) In vivo therapy", "setting": "[4]; treatment dose 100 μg/mL", "result": 34.9, "unit": "%"},
      {"measurement": "Relative inhibition rate (%) In vivo therapy", "setting": "[4]; treatment dose 500 μg/mL", "result": 67.2, "unit": "%"},
      {"measurement": "Relative inhibition rate (%) In vivo protection", "setting": "[5]; treatment dose 100 μg/mL", "result": 36.2, "unit": "%"},
      {"measurement": "Relative inhibition rate (%) In vivo protection", "setting": "[5]; treatment dose 500 μg/mL", "result": 67.9, "unit": "%"}
    ]},
    {"smiles": "CNCC(=O)N[C@@H](CO)C(=O)N[C@H]1[C@H](O)[C@@H](O)[C@H](n2ccc(N)nc2=O)O[C@@H]1C(N)=O", "note": "[Ningnanmycin, reference compound]", "values": [
      {"measurement": "inhibition at 100 µg/mL", "setting": "[2]; treatment dose 100 μg/mL", "result": 26.8, "unit": "%"},
      {"measurement": "inhibition at 500 µg/mL", "setting": "[2]; treatment dose 500 μg/mL", "result": 73.3, "unit": "%"},
      {"measurement": "inhibition at 100 µg/mL", "setting": "[3]; treatment dose 100 μg/mL", "result": 38.4, "unit": "%"},
      {"measurement": "inhibition at 500 µg/mL", "setting": "[3]; treatment dose 500 μg/mL", "result": 68, "unit": "%"},
      {"measurement": "inhibition at 100 µg/mL", "setting": "[4]; treatment dose 100 μg/mL", "result": 20, "unit": "%"},
      {"measurement": "inhibition at 500 µg/mL", "setting": "[4]; treatment dose 500 μg/mL", "result": 54.2, "unit": "%"},
      {"measurement": "inhibition at 100 µg/mL", "setting": "[5]; treatment dose 100 μg/mL", "result": 23.1, "unit": "%"},
      {"measurement": "inhibition at 500 µg/mL", "setting": "[5]; treatment dose 500 μg/mL", "result": 65.4, "unit": "%"}
    ]},
    {"smiles": "NC(=O)c1ncn([C@@H]2O[C@H](CO)[C@@H](O)[C@H]2O)n1", "note": "[Virazole, reference compound]", "values": [
      {"measurement": "inhibition at 100 µg/mL", "setting": "[2]; treatment dose 100 μg/mL", "result": 15.3, "unit": "%"},
      {"measurement": "inhibition at 500 µg/mL", "setting": "[2]; treatment dose 500 μg/mL", "result": 39.5, "unit": "%"},
      {"measurement": "inhibition at 100 µg/mL", "setting": "[3]; treatment dose 100 μg/mL", "result": 12.9, "unit": "%"},
      {"measurement": "inhibition at 500 µg/mL", "setting": "[3]; treatment dose 500 μg/mL", "result": 36.3, "unit": "%"},
      {"measurement": "inhibition at 100 µg/mL", "setting": "[4]; treatment dose 100 μg/mL", "result": 11.9, "unit": "%"},
      {"measurement": "inhibition at 500 µg/mL", "setting": "[4]; treatment dose 500 μg/mL", "result": 35.4, "unit": "%"},
      {"measurement": "inhibition at 100 µg/mL", "setting": "[5]; treatment dose 100 μg/mL", "result": 16.2, "unit": "%"},
      {"measurement": "inhibition at 500 µg/mL", "setting": "[5]; treatment dose 500 μg/mL", "result": 37.6, "unit": "%"}
    ]}
  ]
}
